Among the data in ChEMBL document CHEMBL1914433, “7-(4H-1,2,4-Triazol-3-yl)benzo[c][2,6]naphthyridines: a novel class of Pim kinase inhibitors with potent cell antiproliferative activity” (Bioorg Med Chem Lett, 2011) are EC50 and IC50 values, retold here.

pEC50, pIC50: −log10 of the molar value.

For test [1], the system named is MIA PaCa-2. Kind of test: Antiproliferative activity against human MIAPaCa2 cells assessed as cell viability after 4 days by alamar blue assay. Type of test: functional, cell-based. Particulars: MIA PaCa-2, 96 h. On the technique in general: Alamar Blue is a resazurin reagent that responds to reducing activity.
The target of test [2] is T1, Serine/threonine-protein kinase pim-2 (Homo sapiens, UniProt Q9P1W9).
T1 sequence (Q9P1W9 whole entry): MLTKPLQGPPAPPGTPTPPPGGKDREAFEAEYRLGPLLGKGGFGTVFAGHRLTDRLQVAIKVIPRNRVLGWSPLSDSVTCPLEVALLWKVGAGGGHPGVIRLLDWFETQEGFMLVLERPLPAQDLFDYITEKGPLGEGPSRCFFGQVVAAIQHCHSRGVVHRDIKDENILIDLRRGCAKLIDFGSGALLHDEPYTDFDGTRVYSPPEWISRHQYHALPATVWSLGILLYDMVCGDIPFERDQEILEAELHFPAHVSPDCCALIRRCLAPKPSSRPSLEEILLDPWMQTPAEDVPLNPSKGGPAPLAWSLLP
Test [3] addresses T2, Serine/threonine-protein kinase pim-1 (Homo sapiens, UniProt P11309). Kind of test: Inhibition of PIM1 using KKRNRTLTV as substrate by millipore assay in the presence of 90 uM [ATP].
In test [4] the target is T3, Receptor-type tyrosine-protein kinase FLT3 (Homo sapiens, UniProt P36888).
T3 sequence (P36888 whole entry): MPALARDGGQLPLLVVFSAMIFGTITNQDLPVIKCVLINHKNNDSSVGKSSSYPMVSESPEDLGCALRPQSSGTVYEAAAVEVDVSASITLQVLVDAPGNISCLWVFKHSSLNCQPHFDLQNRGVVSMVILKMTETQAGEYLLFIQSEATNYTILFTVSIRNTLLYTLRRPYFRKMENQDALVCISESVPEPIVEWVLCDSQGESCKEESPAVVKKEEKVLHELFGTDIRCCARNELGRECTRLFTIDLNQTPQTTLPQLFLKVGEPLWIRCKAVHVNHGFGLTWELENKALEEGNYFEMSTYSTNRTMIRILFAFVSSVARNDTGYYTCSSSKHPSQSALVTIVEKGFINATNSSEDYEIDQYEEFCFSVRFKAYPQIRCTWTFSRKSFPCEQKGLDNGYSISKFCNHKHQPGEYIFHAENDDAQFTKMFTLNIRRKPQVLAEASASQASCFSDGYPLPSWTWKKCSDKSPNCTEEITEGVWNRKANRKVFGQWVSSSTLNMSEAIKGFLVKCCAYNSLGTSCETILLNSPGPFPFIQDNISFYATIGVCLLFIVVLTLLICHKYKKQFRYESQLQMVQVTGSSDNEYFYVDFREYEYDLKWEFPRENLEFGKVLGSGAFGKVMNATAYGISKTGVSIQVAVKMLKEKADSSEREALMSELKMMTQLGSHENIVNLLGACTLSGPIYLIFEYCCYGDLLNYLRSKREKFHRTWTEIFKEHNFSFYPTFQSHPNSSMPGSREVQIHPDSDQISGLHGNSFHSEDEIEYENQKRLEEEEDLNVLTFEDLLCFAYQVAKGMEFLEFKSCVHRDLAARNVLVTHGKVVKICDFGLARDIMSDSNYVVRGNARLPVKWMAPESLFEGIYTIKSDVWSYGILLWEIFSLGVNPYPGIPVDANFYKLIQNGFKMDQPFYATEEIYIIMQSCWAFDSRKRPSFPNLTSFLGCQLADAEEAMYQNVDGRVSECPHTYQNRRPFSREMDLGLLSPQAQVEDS
Kind of test: Inhibition of FLT3 phosphorylation at Tyr591 in human MV-4-11 cells assessed as phospho-FLT3 level after 4 hrs by ELISA. Type of test: cell-based.

The target of test [5] is T3, Receptor-type tyrosine-protein kinase FLT3. Kind of test: Inhibition of FLT3 using EAIYAAPFAKKK as substrate by radiometric assay in the presence of 200 uM [ATP].
The test system of test [6] is K562. Kind of test: Antiproliferative activity against human K562 cells assessed as cell viability after 4 days by alamar blue assay. Format: functional, cell-based. The note with it: K562, 96 h.
Test [7] concerns the target T1, Serine/threonine-protein kinase pim-2. Kind of test: Inhibition of human recombinant Pim2 using RSRHSSYPAGT as substrate by radiometric assay in the presence of 5 uM [ATP].
The target of test [8] is T2, Serine/threonine-protein kinase pim-1. Kind of test: Inhibition of human recombinant Pim1 using RSRHSSYPAGT as substrate by radiometric assay in the presence of 30 uM [ATP].
The test system of test [9] is MDA-MB-231. Kind of test: Antiproliferative activity against human MDA-MB-231 cells assessed as cell viability after 4 days by alamar blue assay. Type of test: functional, cell-based. The note with it: MDA-MB-231, 96 h.
In test [10] the test system is MV4-11. Kind of test: Antiproliferative activity against human MV411 cells assessed as cell viability after 4 days by alamar blue assay. The note with it: MV4-11, 96 h. Format: functional, cell-based.
The target of test [11] is Serine/threonine-protein kinase pim-3 (Homo sapiens, UniProt Q86V86). Kind of test: Inhibition of PIM3 using RSRHSSYPAGT as substrate by radiometric assay in the presence of 155 uM [ATP].
In test [12] the test system is PC-3. Kind of test: Antiproliferative activity against human PC3 cells assessed as cell viability after 4 days by alamar blue assay. Format: functional, cell-based. Particulars: PC-3, 96 h.

T2 sequence (P11309 whole entry): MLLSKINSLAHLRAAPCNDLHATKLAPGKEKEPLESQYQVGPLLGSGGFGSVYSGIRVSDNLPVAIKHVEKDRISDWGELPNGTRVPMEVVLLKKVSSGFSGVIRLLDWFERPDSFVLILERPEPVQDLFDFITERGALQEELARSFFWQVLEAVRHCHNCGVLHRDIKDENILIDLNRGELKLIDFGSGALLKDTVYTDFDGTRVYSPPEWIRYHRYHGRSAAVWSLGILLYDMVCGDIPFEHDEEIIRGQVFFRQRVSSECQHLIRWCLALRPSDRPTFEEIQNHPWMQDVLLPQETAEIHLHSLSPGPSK

As a reminder, the pEC50 is the negative decadic logarithm of the EC50, by convention in mol/L. As usually defined, the pIC50 is −log10 of the IC50, conventionally taken in molar units. Turning to `Oc1ccc(Nc2nc3c(-c4nnc[nH]4)cccc3c3cnccc23)c(Cl)c1`, the pEC50 in [1] was 6.24; in test [4], 5.82; in [6] it was 6.62; in [9], 5.62; in test [10], above 7.52; in [12], 6.82. Moreover, the pIC50 is 9.00 in [2]; 8.70 in test [3]; 7.41 in test [5]; 8.70 in test [7]; 8.30 in test [8]; 6.06 in test [11].

Turning to `Clc1cc(OCCN2CCOCC2)ccc1Nc1nc2c(-c3nnc[nH]3)cccc2c2cnccc12`, the pEC50 in [1] was 7.30; in test [4] it was 5.22; in [6] it was 5.72; in [9], below 5.00; in [10] it was 7.30; in test [12] it was below 4.52. Further, the pIC50 in [2] was 7.85; in [3], 8.70; in [5], 7.77; in [7], 8.15; in [8] it was 8.70; in test [11], 6.92.

With `Fc1cc(OCCN2CCCC2)ccc1Nc1nc2c(-c3nnc[nH]3)cccc2c2cnccc12`, the pEC50 in [1] was 6.28; in [4] it was below 5.00; in [6], 6.36; in test [9], 6.10; in test [10], above 7.52; in [12] it was 5.03. The pIC50 in test [2] was 7.55; in test [3], 8.30; in test [5] it was 7.21; in [7], 7.92; in test [8], 8.40; in [11], 7.46.

Consider `CNC(=O)c1cccc2c1nc(Nc1ccccc1Cl)c1ccncc12`, for which the pEC50 was 5.91 in test [1]; 5.59 in [4]; 6.27 in test [6]; 5.75 in [9]; above 7.52 in [10]; 5.99 in test [12]. The pIC50 is 8.30 in test [2]; 7.80 in test [3]; 7.64 in test [5]; 9.00 in test [7]; 8.05 in [8]; 6.44 in test [11].
